Results from US7642059B2, “Single receptor assays for immunosuppressive drugs” (Roche Diagnostics Operations, Inc., priority 2005, dated 2010).

What was measured:
FKBP25 [1] = biological target: T1, FKBP25 (Homo sapiens, UniProt Q00688); settings: FKBP25, rotamase assay; cited from earlier work
T1 sequence (Q00688 1-224): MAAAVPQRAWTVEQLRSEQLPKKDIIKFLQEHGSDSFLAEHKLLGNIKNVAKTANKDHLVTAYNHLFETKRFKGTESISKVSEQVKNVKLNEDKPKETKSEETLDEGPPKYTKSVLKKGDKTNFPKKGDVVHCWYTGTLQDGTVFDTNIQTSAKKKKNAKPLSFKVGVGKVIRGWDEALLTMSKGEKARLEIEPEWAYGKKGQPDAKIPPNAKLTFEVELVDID

FKBP14 = settings: cited from earlier work
FKBP25 [2] = biological target: T1, FKBP25; experiment: FKBP25 microparticle / rapamycin-aminodextran agglutination assay (cross-reactivity); format: binding
Experimental: A first working reagent (R1 reagent) was prepared by making 175 mM PIPES buffer, pH 7.4. To this was added rapamycin-aminodextran conjugate to give a concentration of 400 ng/mL. To this was also added polyacrylic acid to give a concentration of 1.3%.
A second working reagent (R2 reagent) was prepared as described in Example 12 and used at final concentration of 0.14% (w/v) in 50 mM MOPS buffer at pH 7.9.
A stock solution of rapamycin was made (100 μg/mL) in DMSO. Calibrators were prepared from the stock by making solution of 50, 100 and 200 ng/mL of rapamycin in 0.9% saline solution.
An assay was performed using a Hitachi 917 automated analyzer (Roche Diagnostics Corporation, Indianapolis) using a 35 μL sample volume, 180 μL of the first working reagent and 80 μL of the second working reagent (measured OD at 800 nm).
Known quantities of tacrolimus were then assayed as above. By comparing the observed reading from the rapamycin curve obtained to the actual amount of tacrolimus in the samples assayed, tacrolimus cross-reactivity was determined to be 7% in this assay. That is, a sample containing 1000 ng/ml tacrolimus gave a reading from the curve of 70 ng/ml rapamycin. Cross-reactivity is thus (70/1000)×100%=7%.

cross-reactivity (FKBP25 [2]; read from rapamycin curve, Hitachi 917, OD at 800 nm) [%] | reading from the curve as rapamycin (FKBP25 [2]; sample containing 1000 ng/ml tacrolimus) [ng/mL] | SMILES | Ki (FKBP25 [1]) [nM] | Kd (FKBP14) [nM] | fold lower Kd for tacrolimus than sirolimus (FKBP14)
– | – | CO[C@H]1C[C@@H]2CC[C@@H](C)[C@@](O)(O2)C(=O)C(=O)N2CCCC[C@H]2C(=O)O[C@H]([C@H](C)C[C@@H]2CC[C@@H](O)[C@H](OC)C2)CC(=O)[C@H](C)/C=C(\C)[C@@H](O)[C@@H](OC)C(=O)[C@H](C)C[C@H](C)/C=C/C=C/C=C/1C [rapamycin] | 0.9 | – | –
7 | 70 | C=CC[C@@H]1/C=C(\C)C[C@H](C)C[C@H](OC)[C@H]2O[C@@](O)(C(=O)C(=O)N3CCCC[C@H]3C(=O)O[C@H](/C(C)=C/[C@@H]3CC[C@@H](O)[C@H](OC)C3)[C@H](C)[C@@H](O)CC1=O)[C@H](C)C[C@@H]2OC [tacrolimus] | 200 | 1.8 | about 20 fold
